What was measured:
[1] = test system: pain hypersensitivity model rats; test: Mechanical stimulation test (Dynamic Plantar Aesthesiometer), pain threshold of left plantar; type: in vivo; settings: for maximum pain threshold after the administration: max pressure 15.0 g, measured 30, 60, 90 min after administration; for effect of administration on pain threshold (in words): intraperitoneal, versus 0.5 w/v % CMC-Na control, Dunnett's test
Protocol: (§1) As experimental animals, pain hypersensitivity model rats obtained by conducting complete ligation on L5/L6 spinal nerves of 6-week-old male rats were used.
(§2) Mechanical stimulation tests were carried out using Dynamic Plantar Aesthesiometer (37400, Ugo Basile), and thermal stimulation tests were carried out using a plantar thermal stimulation tester (Plantar Test 7370, Ugo Basile). The pain threshold of the feet of each model animal was measured, and the animals were divided into groups using Preclinical Package Version 5.0 (SAS Institute Japan), such that the pain thresholds are uniform among the groups as measured prior to administration on each day of the experiment.
(§3) The test substance was prepared as follows. The base material was ground with an agate mortar and a pestle, and 0.5 w/v % carboxyrnethylcellulose sodium (CMC-Na) as a medium was gradually added thereto to form a uniform suspension. The concentration of the liquid to be administered was adjusted with a graduated cylinder or a volumetric flask, only before use.
(§4) The purpose of administering the test substance is to ascertain the direct effect on spinal cord. Since the test substance had been confirmed to pass through the brain barrier, a simple intraperitoneal administration was used. The test substance in a volume of 5 ml/kg was intraperitoneally administered using a syringe barrel and a needle.
(§5) Groups each including five pain hypersensitivity model male rats (355.8 to 457.9 g) were used. Before administration of ICI182.780, and at 30 minutes, 60 minutes and 90 minutes after administration of ICI182.780, the pain threshold of the left plantar of each rat was measured using a stimulating apparatus which had been set such that the maximum pressure would be 15.0 g and the maximum pressure would be reached in 20 seconds.
as §5, with “(290.3” for “(355.8”, “354.8” for “457.9”, “17β-estradiol,” for “ICI182.780,”
Groups each including five pain hypersensitivity model male rats (294.8 to 415.4 g) were used. Before administration of 17β-estradiol+ICI128.780, and at 30 minutes, 60 minutes and 90 minutes after administration of 17β-estradiol+ICI182.780, the pain threshold of the left plantar of each rat was measured using a stimulating apparatus which had been set such that the maximum pressure would be 15.0 g and the maximum pressure would be reached in 20 seconds.
as §5, with “(333.7” for “(355.8”, “408.3” for “457.9”, “fluocinolone acetonide,” for “ICI182.780,”
as §5, with “(261.4” for “(355.8”, “320.9” for “457.9”, “triamcinolone acetonide,” for “ICI182.780,”

[2] = test system: pain hypersensitivity model rats; test: Thermal stimulation test (plantar thermal stimulation tester), pain threshold of left plantar; type: in vivo; settings: thermal stimulation intensity 35; for maximum pain threshold after the administration: measured 30, 60, 90 min after administration
Protocol: as §1, §2, §3, §4
(§6) Groups each including five pain hypersensitivity model male rats (282.0 to 452.4 g) were used. Before administration of 17β-estradiol+ICI128.780, and at 30 minutes, 60 minutes and 90 minutes after administration of 17β-estradiol+ICI182.780, the pain threshold of the left plantar of each rat was measured using a plantar thermal stimulating apparatus set to a thermal stimulation intensity of 45.
as §6, with “(320.0” for “(282.0”, “449.6” for “452.4”, “fluocinolone acetonide,” for “17β-estradiol+ICI128.780,”, “fluocinolone acetonide,” for “17β-estradiol+ICI182.780,”, “35.” for “45.”

[3] = test system: neuropathic pain model mice; settings: J. Neurosci. 2004, 2005; cited from earlier work

| Structure (SMILES) | maximum pain threshold after the administration ([1]; 0.3 mg/kg intraperitoneal) [g] | maximum pain threshold after the administration ([1]; 3 mg/kg intraperitoneal) [g] | maximum pain threshold after the administration ([1]; 30 mg/kg intraperitoneal) [g] | effect of administration on pain threshold (in words) [1] | maximum pain threshold after the administration ([2]; 0.3 mg/kg intraperitoneal) [s] | maximum pain threshold after the administration ([2]; 3 mg/kg intraperitoneal) [s] | maximum pain threshold after the administration ([2]; 10 mg/kg intraperitoneal) [s] | effect of administration on pain threshold (in words) ([2]; intraperitoneal, versus 0.5 w/v % CMC-Na control) | maximum pain threshold after the administration ([1]; 10 mg/kg intraperitoneal) [g] | analgesic action against neuropathic pain [3] |
| --- | --- | --- | --- | --- | --- | --- | --- | --- | --- | --- |
| C[C@]12CC[C@@H]3c4ccc(O)cc4CC[C@H]3[C@@H]1CC[C@@H]2O [17β-estradiol] | 8.1 | 9.4 | 10.4 | significantly increased the pain threshold |  |  |  |  |  |  |
| C[C@]12CC[C@@H]3c4ccc(O)cc4C[C@@H](CCCCCCCCC[S+]([O-])CCCC(F)(F)C(F)(F)F)[C@H]3[C@@H]1CC[C@@H]2O (stereo partly drawn) [ICI182.780, 7α-17β-[9-[(4,4,5,5,5-pentafluoropentyl)sulphinyl]nonyl]estra-1,3,5(10)-trien-3,17-diol] | 6.7 | 8.7 | 10.6 | significantly increased the pain threshold |  |  |  |  |  |  |
| CC1(C)O[C@@H]2C[C@H]3[C@@H]4C[C@H](F)C5=CC(=O)C=C[C@]5(C)[C@@]4(F)[C@@H](O)C[C@]3(C)[C@]2(C(=O)CO)O1 [fluocinolone acetonide] | 7.5 | 11.3 |  | significantly increased the pain threshold | 8.0 | 9.9 | 9.9 | significantly increased the pain threshold | 11.6 |  |
| CC#C[C@]1(O)CC[C@H]2[C@@H]3CCC4=CC(=O)CCC4=C3[C@@H](c3ccc(N(C)C)cc3)C[C@@]21C [mifepristone] |  |  |  |  |  |  |  |  |  | exhibited an analgesic action against neuropathic pain |
| CC1(C)O[C@@H]2C[C@H]3[C@@H]4CCC5=CC(=O)C=C[C@]5(C)[C@@]4(F)[C@@H](O)C[C@]3(C)[C@]2(C(=O)CO)O1 [triamcinolone acetonide] | 6.6 | 8.1 | 8.8 |  |  |  |  |  |  |  |

From US20090197842A1, “Therapeutic Agent for Neuropathic Pain” (JAPAN SCIENCE AND TECHNOLOGY CORPORATION, priority 2005, published 2009)
